# Biological target: T1, NLRP3 (Homo sapiens, UniProt Q96P20)
# T1 construct: Seed THP-1 cells (5.56*10^5 cells/mL) containing 1.0 ug/mL LPS; endogenous in cells; host or cells: THP-1 cells
# Experiment: THP-1 cell assay (LPS priming, nigericin), IL1β release by HTRF; called pyroptosis assay, THP IC50
# Format: cell-based
# Conditions: NLRP3 inhibitory activity; THP-1 cells, 1.0 ug/mL LPS, compound 3 hrs, nigericin 5 uM 1 hr, IL1β in supernatant
# Procedure: The following method was used for compound screening. • 1. Seed THP-1 cells (5.56*10^5 cells/mL) containing 1.0 ug/mL LPS (SIGMA, L6529) in 45 uL RPMI 1640 medium (without FBS) into 384-well plate (Thermo Scientific, 164688). • 2. Add 5 uL compound (10 doses starting from 5 uM, 1:3 dilution) or vehicle (0.05% DMSO in medium) to the appropriate wells. • 3. Centrifuge the plates at 1000 rpm for 2 mins and incubate for 3 hrs at 37° C., 5% CO2. • 4. Add 5 uL nigericin (MEC, HY-100381) (final conc. 5 uM) to sample wells and positive control wells; add 5 uL RPMI 1640 medium to negative control wells. • 5. Centrifuge plates at 1000 rpm for 2 mins and incubate for 1 hr at 37° C., 5% CO2. • 6. At the end of the incubation period, centrifuge plates at 1000 rpm for 6 mins and transfer 8 uL supernatant into 384-well assay plates (PerkinElmer, 6008280). • 7. Add 8 ul RPMI 1640 medium into each well and spin down for 10 secs. • 8. Prepare the standard solutions and pre-mixed IL1β antibody solution of Human […] kits (PerkinElmer, 62HIL1BPEH) according to the instruction. • 9. Add 16 uL standard solutions into clear wells of 384-well assay plates. • 10. Add 4 uL pre-mixed IL1β antibody solution to all wells including sample wells, positive control wells, negative control wells and standard solutions wells. • 11. Seal the plates, spin down for 10 secs, incubation for overnight at RT and read on an HTRF® compatible reader (BMG LABTECH, PHERAstar FS). • 12. The concentrations of IL1β for treated wells are calculated by the standard curve. • 13. The IC50 data is fitted to a non-liner regression equation (log inhibitor vs. response—Variable slope four parameters)).
# T1 sequence (Q96P20 whole entry): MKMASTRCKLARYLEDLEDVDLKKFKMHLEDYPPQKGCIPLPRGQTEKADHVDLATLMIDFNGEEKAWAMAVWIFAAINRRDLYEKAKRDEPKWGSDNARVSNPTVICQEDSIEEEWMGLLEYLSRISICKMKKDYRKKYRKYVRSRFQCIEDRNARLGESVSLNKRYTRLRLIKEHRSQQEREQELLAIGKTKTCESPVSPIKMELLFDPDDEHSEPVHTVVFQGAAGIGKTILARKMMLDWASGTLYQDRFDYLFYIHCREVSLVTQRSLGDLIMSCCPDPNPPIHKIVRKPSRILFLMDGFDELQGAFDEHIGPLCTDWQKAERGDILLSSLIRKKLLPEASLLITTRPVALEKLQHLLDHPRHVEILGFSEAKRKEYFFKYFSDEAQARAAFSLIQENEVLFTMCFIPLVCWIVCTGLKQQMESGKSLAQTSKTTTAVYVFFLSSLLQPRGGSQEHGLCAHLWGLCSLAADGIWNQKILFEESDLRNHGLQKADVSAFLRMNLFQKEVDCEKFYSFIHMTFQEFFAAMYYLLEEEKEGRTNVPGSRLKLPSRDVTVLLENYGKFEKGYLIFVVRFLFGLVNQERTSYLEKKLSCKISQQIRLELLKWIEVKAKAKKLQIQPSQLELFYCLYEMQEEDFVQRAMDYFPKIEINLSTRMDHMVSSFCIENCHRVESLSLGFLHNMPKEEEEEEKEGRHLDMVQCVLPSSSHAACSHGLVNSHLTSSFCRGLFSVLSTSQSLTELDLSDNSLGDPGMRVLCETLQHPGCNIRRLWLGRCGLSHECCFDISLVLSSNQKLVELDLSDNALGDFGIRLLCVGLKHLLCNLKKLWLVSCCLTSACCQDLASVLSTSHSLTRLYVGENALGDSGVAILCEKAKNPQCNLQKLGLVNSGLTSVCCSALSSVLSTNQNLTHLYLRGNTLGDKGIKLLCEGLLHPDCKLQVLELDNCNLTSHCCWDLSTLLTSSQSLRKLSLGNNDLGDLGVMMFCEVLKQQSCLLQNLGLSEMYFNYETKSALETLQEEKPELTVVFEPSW
row,SMILES,IC50
1,"Cc1cc2c(c(NC(=O)NS(=O)(=O)c3cc(C(O)C4CC4)n(C)n3)c1-c1ccn3nccc3c1)CCC2 (centres unmarked) [Example 16, 5-(cyclopropyl(hydroxy)methyl)-1-methyl-N-((6-methyl-5-(pyrazolo[1,5-a]pyridin-5-yl)-2,3-dihydro-1H-inden-4-yl)carbamoyl)-1H-pyrazole-3-sulfonamide]",≤ 30 nM
2,"Cc1cc2c(c(NC(=O)NS(=O)(=O)c3cncc(C4CCC4)c3)c1-c1ccn3nccc3c1)CCC2 [Example 84, 5-cyclobutyl-N-((6-methyl-5-(pyrazolo[1,5-a]pyridin-5-yl)-2,3-dihydro-1H-inden-4-yl)carbamoyl)pyridine-3-sulfonamide]",≤ 30 nM
3,"Cc1cc2c(c(NC(=O)NS(=O)(=O)c3ccnc(C4CCC4)c3)c1-c1ccn3nccc3c1)CCC2 [Example 38, 2-cyclobutyl-N-((6-methyl-5-(pyrazolo[1,5-a]pyridin-5-yl)-2,3-dihydro-1H-inden-4-yl)carbamoyl)pyridine-4-sulfonamide]",30 to 300 nM
4,"Cc1cc2c(c(NC(=O)NS(=O)(=O)c3cc(C(C)(C)O)cs3)c1-c1ccn3nccc3c1)CCC2 [Example 70, 4-(2-hydroxypropan-2-yl)-N-((6-methyl-5-(pyrazolo[1,5-a]pyridin-5-yl)-2,3-dihydro-1H-inden-4-yl)carbamoyl)thiophene-2-sulfonamide]",≤ 30 nM
5,"Cc1cc2c(c(NC(=O)NS(=O)(=O)c3cnn(CC4CC4)c3)c1-c1ccc3ccnn3c1)CCC2 [Example 21, 1-(cyclopropylmethyl)-N-((6-methyl-5-(pyrazolo[1,5-a]pyridin-6-yl)-2,3-dihydro-1H-inden-4-yl)carbamoyl)-1H-pyrazole-4-sulfonamide]",≤ 30 nM
6,"Cc1cc2c(c(NC(=O)NS(=O)(=O)c3cnn(CC4CC4)c3)c1-c1ccn3ccnc3c1)CCC2 [Example 18, 1-(cyclopropylmethyl)-N-((5-(imidazo[1,2-a]pyridin-7-yl)-6-methyl-2,3-dihydro-1H-inden-4-yl)carbamoyl)-1H-pyrazole-4-sulfonamide]",≤ 30 nM
7,"Cc1cc2c(c(NC(=O)NS(=O)(=O)c3ccn(CC4CC4)n3)c1-c1ccn3nccc3c1)OCC2 [Example 86, 1-(cyclopropylmethyl)-N-((5-methyl-6-(pyrazolo[1,5-a]pyridin-5-yl)-2,3-dihydrobenzofuran-7-yl)carbamoyl)-1H-pyrazole-3-sulfonamide]",30 to 300 nM
8,"CO[C@H](C)Cn1ccc(S(=O)(=O)NC(=O)Nc2c3c(cc(C)c2-c2ccn4nccc4c2)CCC3)n1 [Example 27, (R)-1-(2-methoxypropyl)-N-((6-methyl-5-(pyrazolo[1,5-a]pyridin-5-yl)-2,3-dihydro-1H-inden-4-yl)carbamoyl)-1H-pyrazole-3-sulfonamide]",≤ 30 nM
9,"Cc1cc2cc(-c3ccc4c(c3NC(=O)NS(=O)(=O)c3cc(C(C)(C)O)cs3)CCC4)ccn2n1 [Example 74, 4-(2-hydroxypropan-2-yl)-N-((5-(2-methylpyrazolo[1,5-a]pyridin-5-yl)-2,3-dihydro-1H-inden-4-yl)carbamoyl)thiophene-2-sulfonamide]",≤ 30 nM
10,"CC(C)(O)c1csc(S(=O)(=O)NC(=O)Nc2c(-c3ccc4ncnn4c3)ccc3c2CCC3)c1 [Example 52, N-((5-([1,2,4]triazolo[1,5-a]pyridin-6-yl)-2,3-dihydro-1H-inden-4-yl)carbamoyl)-4-(2-hydroxypropan-2-yl)thiophene-2-sulfonamide]",≤ 30 nM
11,"O=C(Nc1c2c(cc(CO)c1-c1ccn3nccc3c1)CCC2)NS(=O)(=O)c1ccn(C2CC2)n1 [Example 98, 1-cyclopropyl-N-((6-(hydroxymethyl)-5-(pyrazolo[1,5-a]pyridin-5-yl)-2,3-dihydro-1H-inden-4-yl)carbamoyl)-1H-pyrazole-3-sulfonamide]",30 to 300 nM
12,"CC(C)(O)c1csc(S(=O)(=O)NC(=O)Nc2c(-c3ccc4nccn4c3)ccc3c2OCO3)c1 [Example 65, 4-(2-hydroxypropan-2-yl)-N-((5-(imidazo[1,2-a]pyridin-6-yl)benzo[d][1,3]dioxol-4-yl)carbamoyl)thiophene-2-sulfonamide]",30 to 300 nM
13,"Cc1cc2c(c(NC(=O)NS(=O)(=O)c3ccnc(OC4CC4)c3)c1-c1ccn3nccc3c1)CCC2 [Example 33, 2-cyclopropoxy-N-((6-methyl-5-(pyrazolo[1,5-a]pyridin-5-yl)-2,3-dihydro-1H-inden-4-yl)carbamoyl)pyridine-4-sulfonamide]",≤ 30 nM
14,"Cc1cc2c(c(NC(=O)NS(=O)(=O)c3cnn(C4CCC4)c3)c1-c1ccn3nccc3c1)CCC2 [Example 12, 1-cyclobutyl-N-((6-methyl-5-(pyrazolo[1,5-a]pyridin-5-yl)-2,3-dihydro-1H-inden-4-yl)carbamoyl)-1H-pyrazole-4-sulfonamide]",≤ 30 nM
15,"Cc1cc2c(c(NC(=O)NS(=O)(=O)c3ccn(C[C@@H]4CCO4)n3)c1-c1ccn3ncnc3c1)CCC2 [Example 94, (S)—N-((5-([1,2,4]triazolo[1,5-a]pyridin-7-yl)-6-methyl-2,3-dihydro-1H-inden-4-yl)carbamoyl)-1-(oxetan-2-ylmethyl)-1H-pyrazole-3-sulfonamide]",30 to 300 nM
16,"Cc1c(-c2ccc3c(c2NC(=O)NS(=O)(=O)c2cc(C(C)(C)O)cs2)CCC3)ccn2ccnc12 [Example 72, 4-(2-hydroxypropan-2-yl)-N-((5-(8-methylimidazo[1,2-a]pyridin-7-yl)-2,3-dihydro-1H-inden-4-yl)carbamoyl)thiophene-2-sulfonamide]",30 to 300 nM
17,"O=C(Nc1c2c(cc(F)c1-c1ccn3nccc3c1)CCO2)NS(=O)(=O)c1ccn(C2CC2)n1 [Example 87, 1-cyclopropyl-N-((5-fluoro-6-(pyrazolo[1,5-a]pyridin-5-yl)-2,3-dihydrobenzofuran-7-yl)carbamoyl) 1H-pyrazole-3-sulfonamide]",300 to 1000 nM
18,"Cc1cc2c(c(NC(=O)NS(=O)(=O)c3cc(CC4CC4)n(C)n3)c1-c1ccn3nccc3c1)CCC2 [Example 17, 5-(cyclopropylmethyl)-1-methyl-N-((6-methyl-5-(pyrazolo[1,5-a]pyridin-5-yl)-2,3-dihydro-1H-inden-4-yl)carbamoyl)-1H-pyrazole-3-sulfonamide]",≤ 30 nM
19,"O=C(Nc1c2c(cc(Cl)c1-c1ccn3cnnc3c1)CCC2)NS(=O)(=O)c1ccn(C2CC2)n1 [Example 96, N-((5-([1,2,4]triazolo[4,3-a]pyridin-7-yl)-6-chloro-2,3-dihydro-1H-inden-4-yl)carbamoyl)-1-cyclopropyl-1H-pyrazole-3-sulfonamide]",≤ 30 nM
20,"Cc1c(-c2ccc3c(c2NC(=O)NS(=O)(=O)c2cc(C(C)(C)O)cs2)CCC3)ccn2cncc12 [Example 73, 4-(2-hydroxypropan-2-yl)-N-((5-(8-methylimidazo[1,5-a]pyridin-7-yl)-2,3-dihydro-1H-inden-4-yl)carbamoyl)thiophene-2-sulfonamide]",30 to 300 nM
21,"CC(C)(O)c1csc(S(=O)(=O)NC(=O)Nc2c(-c3cncc4[nH]ccc34)ccc3c2CCC3)c1 [Example 45, N-((5-(1H-pyrrolo[2,3-c]pyridin-4-yl)-2,3-dihydro-1H-inden-4-yl)carbamoyl)-4-(2-hydroxypropan-2-yl)thiophene-2-sulfonamide]",300 to 1000 nM
22,"CC(C)n1ccc(S(=O)(=O)NC(=O)Nc2c(-c3ccnc4c3ccn4C)ccc3c2CCC3)n1 [Example 50, 1-isopropyl-N-((5-(1-methyl-1H-pyrrolo[2,3-b]pyridin-4-yl)-2,3-dihydro-1H-inden-4-yl)carbamoyl)-1H-pyrazole-3-sulfonamide]",300 to 1000 nM
23,"Cc1cc2c(c(NC(=O)NS(=O)(=O)c3ccn(C[C@@H]4CCO4)n3)c1-c1ccc3ccnn3c1)CCC2 [Example 95, (S)—N-((6-methyl-5-(pyrazolo[1,5-a]pyridin-6-yl)-2,3-dihydro-1H-inden-4-yl)carbamoyl)-1-(oxetan-2-ylmethyl)-1H-pyrazole-3-sulfonamide]",30 to 300 nM
24,"Cc1cc2c(c(NC(=O)NS(=O)(=O)c3cnn(CC4CC4)c3)c1-c1ccn3nccc3c1)CCC2 [Example 6, 1-(cyclopropylmethyl)-N-((6-methyl-5-(pyrazolo[1,5-a]pyridin-5-yl)-2,3-dihydro-1H-inden-4-yl)carbamoyl)-1H-pyrazole-4-sulfonamide]",≤ 30 nM
25,"Cn1ccc2cc(-c3ccc4c(c3NC(=O)NS(=O)(=O)c3cc(C(C)(C)O)cs3)CCC4)cnc21 [Example 44, 4-(2-hydroxypropan-2-yl)—N-((5-(1-methyl-1H-pyrrolo[2,3-b]pyridin-5-yl)-2,3-dihydro-1H-inden-4-yl)carbamoyl)thiophene-2-sulfonamide]",30 to 300 nM
26,"COC(c1cc(S(=O)(=O)NC(=O)Nc2c3c(cc(C)c2-c2ccn4nccc4c2)CCC3)nn1C)C1CC1 (centres unmarked) [Example 15, 5-(cyclopropyl(methoxy)methyl)-1-methyl-N-((6-methyl-5-(pyrazolo[1,5-a]pyridin-5-yl)2,3-dihydro-1H-inden-4-yl)carbamoyl)-1H-pyrazole-3-sulfonamide]",30 to 300 nM

# — patent publication US20240400561A1, “NOVEL SUBSTITUTED SULFONYLUREA COMPOUNDS AS INHIBITORS OF INTERLEUKIN-1 ACTIVITY” (Viva Star Biosciences (Suzhou) Co., Ltd., priority 2021, published 2024)
